Experimental data reported in patent US20100081613A1, “METHODS AND COMPOSITIONS FOR ENHANCING MEMORY” (THE TRUSTEES OF COLUMBIA UNIVERSITY IN THE CITY OF NEW YORK, priority 2006, published 2010).

Assays:
[1] = system: hippocampal slices; assay: Paired pulse facilitation (PPF) at the CA3-CA1 connection; type: cell-based, mouse
[2] = system: hippocampal slices
[3] = biological target: rodent Aβ42 (Mus musculus; Rattus norvegicus); assay: cell-based or functional assay

Compound	PPF ([1]; 20 ms interval, MCL 3 μM for 20 min plus Aβ42)	PPF ([1]; 30 ms interval, MCL 3 μM for 20 min plus Aβ42)	PPF ([1]; 40 ms interval, MCL 3 μM for 20 min plus Aβ42)	PPF ([1]; 50 ms interval, MCL 3 μM for 20 min plus Aβ42)	PPF ([1]; MCL 3 μM for 20 min alone)	PTP [2]	contextual fear conditioning, freezing 24 hrs after training, m3.2 mAb 1 µg in 1 µl into dorsal hippocampi (% of freezing) [3]
CNC1(C)C2CCC(C2)C1(C)C (centres unmarked) [MCL, mecamylamine]	138.18±22.01 % of facilitation	158.58±16.79 % of facilitation	176.71±17.51 % of facilitation	197.49±22.30 % of facilitation	214.53±20.85%	does not affect PTP	–
anti-rodent Aβ monoclonal antibody m3.2	–	–	–	–	–	–	16.8
α-bungarotoxin [α-BgTx]	–	–	–	–	–	does not affect PTP	–
